From patent US20240116985A1, “STAPLED PEPTIDES AND METHODS THEREOF” (priority 2020, published 2024)
In brackets after ≈: the same amount, converted by molar mass. Where two headings read alike, the source gives them in different places.

Columns and labels:
[1] = biological target: T1, full-length beta-Catenin (Uniprot ID P35222) (Homo sapiens, UniProt P35222); experiment: Fluorescence polarization IC50 (beta-catenin / 5FAM-TCF4 10-53 competition); type: binding
T1 construct: 10 nM full-length beta-Catenin (Uniprot ID P35222)
T1 sequence (P35222 1-781): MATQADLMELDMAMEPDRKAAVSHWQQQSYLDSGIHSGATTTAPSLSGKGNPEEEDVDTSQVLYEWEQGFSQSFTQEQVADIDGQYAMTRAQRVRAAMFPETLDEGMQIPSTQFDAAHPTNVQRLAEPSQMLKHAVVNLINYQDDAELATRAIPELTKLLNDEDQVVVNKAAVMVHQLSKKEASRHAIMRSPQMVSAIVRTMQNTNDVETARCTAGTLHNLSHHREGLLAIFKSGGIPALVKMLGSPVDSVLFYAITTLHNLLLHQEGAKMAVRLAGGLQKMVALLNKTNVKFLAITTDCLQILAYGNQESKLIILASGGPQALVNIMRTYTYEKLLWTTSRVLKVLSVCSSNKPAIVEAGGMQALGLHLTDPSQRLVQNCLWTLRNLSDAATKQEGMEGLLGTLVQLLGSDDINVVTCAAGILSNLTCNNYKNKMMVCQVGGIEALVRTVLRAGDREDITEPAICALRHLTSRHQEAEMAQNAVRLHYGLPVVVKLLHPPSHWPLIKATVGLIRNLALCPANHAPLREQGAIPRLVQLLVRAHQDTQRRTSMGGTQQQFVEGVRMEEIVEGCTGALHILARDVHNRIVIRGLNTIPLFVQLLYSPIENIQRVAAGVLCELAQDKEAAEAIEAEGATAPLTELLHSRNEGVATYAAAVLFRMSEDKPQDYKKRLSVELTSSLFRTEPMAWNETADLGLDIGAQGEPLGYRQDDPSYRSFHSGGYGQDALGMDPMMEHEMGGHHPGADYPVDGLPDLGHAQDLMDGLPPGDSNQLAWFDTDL

CHI Log D procedure = type: physicochemical; conditions: for chromatographic logD: pH 7.4, CHI Log D; for CHI Log D: pH 7.4
Solubility in PBS = type: physicochemical
Summary of the method: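 The PBS solution was ultracentrifuged and the supernatant analyzed by HPLC. Its peak area was divided by that of a 50 μM peptide DMSO reference injection and multiplied by 50 uM to give solubility.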

[2] = fluorescence polarization, read-out: beta-Catenin FP IC50
[3] = Table E2-1, read-out: beta-Catenin FP IC50
[4] = fluorescence polarization, beta-catenin, read-out: FP EC50

| Compound | IC50 [1, 2] [nM] | chromatographic logD (CHI Log D procedure) | Solubility (Solubility in PBS; Solubility (uM)) [µM] | IC50 ([1]; read-out: FP EC50) [nM] | CHI Log D (CHI Log D procedure) | Solubility (Solubility in PBS) [µM] | IC50 [1, 3] [nM] | IC50 [1, 4] [nM] | IC50 ([1]; read-out: beta-Catenin FP IC50) [nM] |
| --- | --- | --- | --- | --- | --- | --- | --- | --- | --- |
| CC(=O)N1CCC[C@]12CC=CCCCC1(CCCC=CCCCCCC[C@@](C)(C(=O)N[C@@H](Cc3ccccc3)C(=O)N[C@@H](Cc3csc4ccccc34)C(=O)N[C@@H](CCC(N)=O)C(N)=O)NC(=O)[C@H]([C@@H](C)O)NC(=O)[C@H](Cc3ccccc3)NC(=O)[C@H](C)NC(=O)[C@H](C)NC(=O)[C@H](CCC(=O)O)NC(=O)[C@H](CC(=O)O)NC1=O)NC(=O)[C@H](C)NC(=O)[C@H](CC(=O)O)NC2=O (stereo partly drawn) [I-423, Ac-PL3-Asp-Ala-B5-Asp-Glu-Ala-Ala-Phe-Thr-S8-Phe-BztA-Gln-NH2] | 105 | 2.09 | 48 (≈ 87.1 µg/mL) |  |  |  |  |  |  |
| CC(=O)N1CCC[C@]12CC=CCCCC1(CCCC=CCCCCCC[C@@](C)(C(=O)N[C@@H](Cc3ccccc3)C(=O)N[C@@H](Cc3csc4ccccc34)C(=O)N[C@@H](Cc3c[nH]cn3)C(=O)N[C@@H](C)C(N)=O)NC(=O)[C@H](CC(N)=O)NC(=O)[C@H](Cc3ccccc3)NC(=O)[C@H](C)NC(=O)[C@H](C)NC(=O)[C@H](CCC(=O)O)NC(=O)[C@H](CC(=O)O)NC1=O)NC(=O)[C@H](CC(C)C)NC(=O)[C@H](CC(=O)O)NC2=O (stereo partly drawn) [I-738, Ac-PL3-Asp-Leu-B5-Asp-Glu-Ala-Ala-Phe-Asn-S8-Phe-BztA-His-Ala-NH2] | 63 | 2.46 | 41 (≈ 79.9 µg/mL) |  |  |  |  |  |  |
| CC(=O)N1CCC[C@]12CC=CCCCC1(CCCC=CCCCCCC[C@@](C)(C(=O)N[C@@H](Cc3ccc(C#N)cc3)C(=O)N[C@@H](Cc3csc4ccccc34)C(=O)N[C@@H](CCC(N)=O)C(N)=O)NC(=O)[C@H](C(C)C)NC(=O)[C@H](Cc3ccccc3)NC(=O)[C@H](C)NC(=O)[C@H](C)NC(=O)[C@H](CC(=O)O)NC(=O)[C@H](CC(=O)O)NC1=O)NC(=O)[C@H](C)NC(=O)[C@H](CC(=O)O)NC2=O (stereo partly drawn) [I-359, Ac-PL3-Asp-Ala-B5-Asp-Asp-Ala-Ala-Phe-Val-S8-4CNF-BztA-Gln-NH2] |  | 2.06 | 30 (≈ 54.7 µg/mL) |  |  |  | 5000 |  |  |
| CC(=O)N1CCC[C@]12CC=CCCCC1(CCCC=CCCCCCC[C@@](C)(C(=O)N[C@@H](Cc3ccccc3)C(=O)N[C@@H](Cc3csc4ccccc34)C(=O)N[C@@H](CCC(N)=O)C(N)=O)NC(=O)[C@H](CCC(N)=O)NC(=O)[C@H](Cc3cccc(C(F)(F)F)c3)NC(=O)[C@H](C)NC(=O)[C@H](C)NC(=O)[C@H](CC(=O)O)NC(=O)[C@H](CC(=O)O)NC1=O)NC(=O)[C@H](C)NC(=O)[C@H](CC(=O)O)NC2=O (stereo partly drawn) [I-380, Ac-PL3-Asp-Ala-B5-Asp-Asp-Ala-Ala-3F3MeF-Gln-S8-Phe-BztA-Gln-NH2] |  |  |  |  | 2.19 | 49 (≈ 92.9 µg/mL) | 552 | 552 |  |
| COc1ccccc1C[C@H](NC(=O)[C@]1(C)CCCCCCC=CCCCC2(CCCC=CC[C@]3(CCCN3C(C)=O)C(=O)N[C@@H](CC(=O)O)C(=O)N[C@@H](C)C(=O)N2)C(=O)N[C@@H](CC(=O)O)C(=O)N[C@@H](CCC(=O)O)C(=O)N[C@@H](C)C(=O)N[C@@H](C)C(=O)N[C@@H](Cc2ccccc2)C(=O)N[C@@H](CC(N)=O)C(=O)N1)C(=O)N[C@@H](Cc1csc2ccccc12)C(=O)N[C@@H](Cc1c[nH]cn1)C(N)=O (stereo partly drawn) [I-511, Ac-PL3-Asp-Ala-B5-Asp-Glu-Ala-Ala-Phe-Asn-S8-2OMeF-BztA-His-NH2] | 40 |  |  | 40 | 2.099 | 29 (≈ 54.1 µg/mL) |  |  |  |
| CC(=O)N1CCC[C@]12CC=CCCCC1(CCCC=CCCCCCC[C@@](C)(C(=O)N[C@@H](Cc3ccccc3[N+](=O)[O-])C(=O)N[C@@H](Cc3csc4ccccc34)C(=O)N[C@@H](CCC(N)=O)C(N)=O)NC(=O)[C@H](CC(N)=O)NC(=O)[C@H](Cc3ccccc3)NC(=O)[C@H](C)NC(=O)[C@H](C)NC(=O)[C@H](CCC(=O)O)NC(=O)[C@H](CC(=O)O)NC1=O)NC(=O)[C@H](C)NC(=O)[C@H](CC(=O)O)NC2=O (stereo partly drawn) [I-441, Ac-PL3-Asp-Ala-B5-Asp-Glu-Ala-Ala-Phe-Asn-S8-2NO2F-BztA-Gln-NH2] | 133 | 2 | 38 (≈ 71.1 µg/mL) |  |  |  |  |  |  |

The remaining lines, values ahead:

| IC50 [1, 2] [nM] | chromatographic logD (CHI Log D procedure) | Solubility (Solubility in PBS; Solubility (uM)) [µM] | IC50 ([1]; read-out: FP EC50) [nM] | CHI Log D (CHI Log D procedure) | Solubility (Solubility in PBS) [µM] | IC50 [1, 3] [nM] | IC50 [1, 4] [nM] | IC50 ([1]; read-out: beta-Catenin FP IC50) [nM] | Compound |
| --- | --- | --- | --- | --- | --- | --- | --- | --- | --- |
| 338 |  |  | 338 | 3.002 | 47 (≈ 83.7 µg/mL) |  |  |  | CC(=O)N1CCC[C@]12CC=CCCCC1(CCCC=CCCCCCC[C@@](C)(C(=O)N[C@@H](Cc3ccccc3)C(=O)N[C@@H](Cc3csc4ccccc34)C(N)=O)NC(=O)[C@H](CC(N)=O)NC(=O)[C@H](Cc3ccccc3)NC(=O)[C@H](C)NC(=O)[C@H](C)NC(=O)[C@H](CCC(=O)O)NC(=O)[C@H](CC(=O)O)NC1=O)NC(=O)[C@H](CC1CCCCC1)NC(=O)[C@H](CC(=O)O)NC2=O (stereo partly drawn) [I-627, Ac-PL3-Asp-Cha-B5-Asp-Glu-Ala-Ala-Phe-Asn-S8-Phe-BztA-NH2] |
|  |  |  |  | 2.06 | 13 (≈ 25.8 µg/mL) |  | 336 | 336 | CC(=O)N1CCC[C@]12CC=CCCCC1(CCCC=CCCCOC(=O)N3CC[C@@](C(=O)N[C@@H](Cc4ccsc4)C(=O)N[C@@H](Cc4csc5ccccc45)C(=O)N[C@@H](CO)C(N)=O)(C3)NC(=O)[C@H](CC(C)C)NC(=O)[C@H](Cc3ccccc3)NC(=O)[C@H](C)NC(=O)[C@H](C)NC(=O)[C@H](CN(CC(=O)O)CC(F)(F)F)NC(=O)[C@H](CC(=O)O)NC1=O)NC(=O)[C@H](CC(C)(C)C)NC(=O)[C@H](CC(=O)O)NC2=O (stereo partly drawn) [I-960, Ac-PL3-Asp-Npg-B5-Asp-TfeGA-Ala-Ala-Phe-Leu-PyrS2-3Thi-BztA-Ser-NH2] |
| 1660 |  |  | 1660 | 1.917 | 50 (≈ 92.4 µg/mL) |  |  |  | CC(=O)N1CCC[C@]12CC=CCCCC1(CCCC=CCCCCCC[C@@](C)(C(=O)N[C@@H](Cc3cccc(F)c3)C(=O)N[C@@H](Cc3c[nH]c4ccccc34)C(=O)N[C@@H](CCC(N)=O)C(N)=O)NC(=O)[C@H](CCC(N)=O)NC(=O)[C@H](Cc3ccsc3)NC(=O)[C@H](C)NC(=O)[C@H](C)NC(=O)[C@H](CCC(=O)O)NC(=O)[C@H](CC(=O)O)NC1=O)NC(=O)[C@H](C)NC(=O)[C@H](CC(=O)O)NC2=O (stereo partly drawn) [I-452, Ac-PL3-Asp-Ala-B5-Asp-Glu-Ala-Ala-3Thi-Gln-S8-3FF-Trp-Gln-NH2] |
| 74 |  |  | 74 | 1.996 | 50 (≈ 91.7 µg/mL) |  |  |  | CC(=O)N1CCC[C@]12CC=CCCCC1(CCCC=CCCCCCC[C@@](C)(C(=O)N[C@@H](Cc3ccccc3)C(=O)N[C@@H](Cc3csc4ccccc34)C(=O)N[C@@H](CCC(N)=O)C(N)=O)NC(=O)[C@H](CC(N)=O)NC(=O)[C@H](Cc3cccs3)NC(=O)[C@H](C)NC(=O)[C@H](C)NC(=O)[C@H](CCC(=O)O)NC(=O)[C@H](CC(=O)O)NC1=O)NC(=O)[C@H](C)NC(=O)[C@H](CC(=O)O)NC2=O (stereo partly drawn) [I-447, Ac-PL3-Asp-Ala-B5-Asp-Glu-Ala-Ala-2Thi-Asn-S8-Phe-BztA-Gln-NH2] |
|  |  |  |  | 1.967 | 29 (≈ 55.2 µg/mL) |  | 414 | 414 | CC(=O)N1CCC[C@]12CC=CCCCC1(CCCC=CCCCOC(=O)N3CC[C@@](C(=O)N[C@@H](Cc4ccccc4Cl)C(=O)N[C@@H](Cc4csc5ccccc45)C(=O)N[C@@H](CO)C(N)=O)(C3)NC(=O)[C@H](CC(C)C)NC(=O)[C@H](Cc3ccccc3)NC(=O)[C@H](C)NC(=O)[C@H](C)NC(=O)[C@H](CC(=O)O)NC(=O)[C@H](CC(=O)O)NC1=O)NC(=O)[C@H](CC(C)(C)C)NC(=O)[C@H](CC(=O)O)NC2=O (stereo partly drawn) [I-1064, Ac-PL3-Asp-Npg-B5-Asp-Asp-Ala-Ala-Phe-Leu-PyrS2-2C1F-BztA-Ser-NH2] |
